According to patent US11072588B2, “Barbituric acid derivatives comprising cationic and lipophilic groups” (UNIVERSITETET I TROMSØ—NORGES ARKTISKE UNIVERSITET, priority 2017, dated 2021):
Values after ≈ are worked out from the molar mass of the structure shown.

Key:
Format in all cases: cell-based
[1] = test system: human metastatic melanoma (A2058, ATCC CRL-11147) cells; test: Anti-cancer activity against A2058 cells; conditions: A2058, read-out: Anti-cancer IC50
Method: Cytotoxicity of the test compounds was evaluated after 72 hour exposure to human metastatic melanoma (A2058, ATCC CRL-11147) cells.
A2058 cells were grown overnight (2,000 cells/well), and then incubated with the test compounds (range of concentrations) diluted in MEM Earle's supplemented with gentamycin (10 μg/mL), non-essential amino acids (1%), sodium pyruvate (1 mM), L-alanyl-Lglutamine (2 mM), but without FBS (total volume was 100 μl) for […]. Ten μL of CellTiter 96® AQueous One Solution Reagent (Promega, Madison, Wis., USA) was added, and the plates were then further incubated for 1 hour.
Absorbance was measured at 485 nm in a DTX 880 Multimode Detector. Results were calculated as % survival compared to negative (assay media) and positive (Triton X-100; Sigma-Aldrich) controls.

[2] = test system: Corynebacterium glutamicum ATCC 13032; test: MIC assay, antibiotic susceptible reference strain; conditions: ATCC13032; Corynebacterium glutamicum ATCC 13032; read-out: Antimicrobial activity (MIC) C. g
Method: (§1) Working solutions of the test derivatives were prepared with up to 100% DMSO and stored at −20° C. If necessary, the solutions were heated to 40-80° C. before testing to facilitate complete dissolution. Double-distilled water was used in all dilutions prepared. […] A microdilution susceptibility test was used for MIC determination according to Clinical and Laboratory Standards Institute, “Methods for Dilution Antimicrobial Sisceptibility Tests for Bacteria That Graw Aerobically”, Approved Standard M07-A9, edition 2012, with modifications as described by Igumnova et al (Bioorg Med Chem, 2016, 24 (22), 5884-5894).
(§2) Briefly, the bacterial inoculum was adjusted to approximately 2.5-3×10^4 cells/mL in Mueller-Hinton broth (MHB, Difco Laboratories, USA), and incubated in a ratio of 1:1 with test derivatives in polystyrene 96-well flat-bottom microplates (NUNC, Roskilde, Denmark). Positive growth control (without test derivatives) and negative control (without bacteria) were included. The reference antibiotic was oxytetracycline hydrochloride (Sigma Aldrich, Saint Louis, Mo., USA). The microplates were incubated in an EnVision microplate reader (Perkin-Elmer, Turku, Finland) placed in an incubator set to 35° C. for 48 h. The MIC value was defined as the lowest concentration of derivative resulting in no bacterial growth as determined by OD600 measurement. All derivatives were tested in three parallels.

[3] = test system: Escherichia coli ATCC 25922; test: MIC assay, antibiotic susceptible reference strain; conditions: ATCC25922; Escherichia coli ATCC 25922; read-out: Antimicrobial activity (MIC) E. c
Method: as §1, §2

[4] = test system: Pseudomonas aeruginosa PA01, DSM 19880 (ATCC 15692); test: MIC assay, antibiotic susceptible reference strain; conditions: Pseudomonas aeruginosa PA01, DSM 19880 (ATCC 15692); read-out: Antimicrobial activity (MIC) P. a
Method: as §1, §2

[5] = test system: Staphylococcus aureus ATCC 9144; test: MIC assay, antibiotic susceptible reference strain; conditions: ATCC9144; Staphylococcus aureus ATCC 9144; read-out: Antimicrobial activity (MIC) S. a
Method: as §1, §2

Row | SMILES | IC50 [1] | MIC [2] | MIC [3] | MIC [4] | MIC [5]
1 | NCCCCN1C(=O)N(CCCCN)C(=O)C(CCCc2ccccc2)(CCCc2ccccc2)C1=O [Compound 9] | 2.9 µg/mL (≈ 5.72 µM) | – | – | – | –
2 | CN(C)[C@@H]1C(O)=C(C(N)=O)C(=O)[C@@]2(O)C(O)=C3C(=O)c4c(O)cccc4[C@@](C)(O)[C@H]3[C@H](O)[C@@H]12 [Oxytetracycline, reference compound] | – | 0.65 µg/mL (≈ 1.41 µM) | 2.5 µg/mL (≈ 5.43 µM) | 20 µg/mL (≈ 43.4 µM) | 0.65 µg/mL (≈ 1.41 µM)
